# Results as given in patent US20190185518A9, “WARHEAD-CONTAINING PEPTIDOMIMETIC MACROCYCLES AS MODULATORS OF BFL-1” (AILERON Therapeutics, Inc., priority 2017, published 2019).
# Positions of bridges follow the written chain, without caps; N, C: chain ends. Non-standard residues stand in square brackets, D forms with d. Residues, ends and D or L forms follow the SMILES beside them. R8 = C=CCCCCCC[C@@](C)(N)C(=O)O; Cit = NC(=O)NCCC[C@H](N)C(=O)O; S5 = C=CCCC[C@](C)(N)C(=O)O
# Tests used:
# Bcl-2 = Bcl-2 (Homo sapiens, UniProt P10415); experiment: Ki determination for Bcl-2 (BCL-2 family binding spectrum); conditions: TABLE 6; read-out: Bcl-2 Ki
# Chain of Bcl-2 (P10415 whole entry, species assumed): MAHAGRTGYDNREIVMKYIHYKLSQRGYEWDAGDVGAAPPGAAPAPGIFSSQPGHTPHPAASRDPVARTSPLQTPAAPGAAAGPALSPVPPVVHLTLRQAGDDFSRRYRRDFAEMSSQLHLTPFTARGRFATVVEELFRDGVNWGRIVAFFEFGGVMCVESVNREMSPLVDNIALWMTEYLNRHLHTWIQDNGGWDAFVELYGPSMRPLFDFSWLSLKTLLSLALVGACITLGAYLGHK
# How it was run: (§1)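 Competitive fluorescence polarization: compounds (1 nM–1 mM) with 25 nM fluoresceinated peptidomimetic macrocycle and 50 nM protein in 140 mM NaCl, 50 mM Tris-HCl pH 7.4, 30 min at room temperature. Constants from nonlinear regression.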
# Bcl-xL = Bcl-xL (Homo sapiens, UniProt Q07817); experiment: Ki determination for Bcl-xL (BCL-2 family binding spectrum); conditions: TABLE 6; read-out: Bcl-xL Ki
# Chain of Bcl-xL (Q07817 whole entry, species assumed): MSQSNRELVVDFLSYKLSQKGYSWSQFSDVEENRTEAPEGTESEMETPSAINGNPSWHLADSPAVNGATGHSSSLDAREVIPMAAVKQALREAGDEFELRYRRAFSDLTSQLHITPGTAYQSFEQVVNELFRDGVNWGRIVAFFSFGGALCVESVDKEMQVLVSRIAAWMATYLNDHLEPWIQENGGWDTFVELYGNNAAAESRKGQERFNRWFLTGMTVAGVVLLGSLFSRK
# How it was run: as §1
# Mcl-1 = Mcl-1 (Homo sapiens, UniProt Q07820); experiment: Ki determination for Mcl-1 (BCL-2 family binding spectrum); conditions: TABLE 6; read-out: Mcl-1 Ki
# Chain of Mcl-1 (Q07820 whole entry, species assumed): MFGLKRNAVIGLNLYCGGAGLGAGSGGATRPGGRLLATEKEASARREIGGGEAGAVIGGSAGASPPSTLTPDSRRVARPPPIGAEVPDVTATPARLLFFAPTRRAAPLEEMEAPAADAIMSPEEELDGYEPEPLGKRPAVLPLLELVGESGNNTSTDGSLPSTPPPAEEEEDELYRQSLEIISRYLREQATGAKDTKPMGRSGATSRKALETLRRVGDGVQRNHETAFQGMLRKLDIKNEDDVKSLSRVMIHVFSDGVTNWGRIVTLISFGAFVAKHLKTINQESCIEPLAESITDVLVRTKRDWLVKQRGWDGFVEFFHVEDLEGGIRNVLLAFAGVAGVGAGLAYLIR
# How it was run: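 Binding to Mcl-1 was measured as displacement of a fluorescein-labelled macrocyclic peptidomimetic, read by fluorescence polarization. Constants were fitted by nonlinear regression.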
# Mcl-1, Bcl-xL, Bcl-2 = experiment: BCL-2 family selectivity profile; type: binding; conditions: TABLE 6
# Source text: The binding spectrum of stapled BIM BH3 peptides were tuned for BCL-2 family selectivity. […] ABT-199 is venetoclax, and † represents values reported in the literature.
Structure (SMILES),Ki (Bcl-2) [nM],Ki (Bcl-xL) [nM],Ki (Mcl-1) [nM],"Profile (Mcl-1, Bcl-xL, Bcl-2)"
CC[C@H](C)[C@H](NC(C)=O)C(=O)N[C@@H](Cc1c[nH]c2ccccc12)C(=O)N[C@H](C(=O)N[C@@H](C)C(=O)N[C@@H](CCC(N)=O)C(=O)N[C@@H](C)C(=O)N[C@@H](CC(C)C)C(=O)N[C@@H](CCCNC(=N)N)C(=O)N[C@]1(C)CCCCCCC=CCCC[C@@](C)(C(=O)N[C@@H](Cc2ccc(O)cc2)C(=O)N[C@@H](Cc2ccc(O)cc2)C(=O)N[C@@H](C)C(N)=O)NC(=O)[C@H](CC(N)=O)NC(=O)[C@H](Cc2ccccc2)NC(=O)[C@H](CCC(=O)O)NC(=O)[C@H](CC(=O)O)NC(=O)CNC(=O)[C@H]([C@@H](C)CC)NC1=O)[C@@H](C)CC [Peptide #1] (Ac-IWIAQALR[R8]IGDEFN[S5]YYA-NH2; staple 9-16),3.2,1.4,1.8,Pan-selective
CC[C@H](C)[C@H](NC(C)=O)C(=O)N[C@@H](Cc1c[nH]c2ccccc12)C(=O)N[C@H](C(=O)N[C@@H](C)C(=O)N[C@@H](C)C(=O)N[C@@H](C)C(=O)N[C@@H](CC(C)C)C(=O)N[C@@H](CCCNC(=N)N)C(=O)N[C@]1(C)CCCCCCC=CCCC[C@@](C)(C(=O)N[C@@H](Cc2ccc(O)cc2)C(=O)N[C@@H](Cc2ccc(O)cc2)C(=O)N[C@@H](C)C(N)=O)NC(=O)[C@H](CC(N)=O)NC(=O)[C@H](Cc2ccccc2)NC(=O)[C@H](CCC(N)=O)NC(=O)[C@H](CC(=O)O)NC(=O)CNC(=O)[C@H]([C@@H](C)CC)NC1=O)[C@@H](C)CC [compound 4] (Ac-IWIAAALR[R8]IGDQFN[S5]YYA-NH2; staple 9-16),22,4,6,Pan-selective
CC[C@H](C)[C@H](NC(C)=O)C(=O)N[C@@H](Cc1c[nH]c2ccccc12)C(=O)N[C@H](C(=O)N[C@@H](C)C(=O)N[C@@H](CCC(N)=O)C(=O)N[C@@H](C)C(=O)N[C@@H](CC(C)C)C(=O)N[C@@H](CCCNC(N)=O)C(=O)N[C@]1(C)CCCCCCC=CCCC[C@@](C)(C(=O)N[C@@H](Cc2ccc(O)cc2)C(=O)N[C@@H](Cc2ccc(O)cc2)C(=O)N[C@@H](C)C(N)=O)NC(=O)[C@H](CC(N)=O)NC(=O)[C@H](Cc2ccccc2)NC(=O)[C@H](C)NC(=O)[C@H](CC(=O)O)NC(=O)CNC(=O)[C@H]([C@@H](C)CC)NC1=O)[C@@H](C)CC [compound 5] (Ac-IWIAQAL[Cit][R8]IGDAFN[S5]YYA-NH2; staple 9-16),212,110,7.5,Mcl-1 selective
CC[C@H](C)[C@H](NC(C)=O)C(=O)N[C@@H](Cc1c[nH]c2ccccc12)C(=O)N[C@H](C(=O)N[C@@H](C)C(=O)N[C@@H](CCC(N)=O)C(=O)N[C@@H](C)C(=O)N[C@@H](CC(C)C)C(=O)N[C@@H](CCCNC(N)=O)C(=O)N[C@]1(C)CCCCCCC=CCCC[C@@](C)(C(=O)N[C@@H](Cc2ccc(O)cc2)C(=O)N[C@@H](Cc2ccc(O)cc2)C(=O)N[C@@H](C)C(N)=O)NC(=O)[C@H](CC(N)=O)NC(=O)[C@H](Cc2ccccc2)NC(=O)[C@H](CCC(N)=O)NC(=O)[C@H](CC(=O)O)NC(=O)CNC(=O)[C@H]([C@@H](C)CC)NC1=O)[C@@H](C)CC [compound 6] (Ac-IWIAQAL[Cit][R8]IGDQFN[S5]YYA-NH2; staple 9-16),88.2,28.8,1.7,Mcl-1 selective
CC[C@H](C)[C@H](NC(C)=O)C(=O)N[C@@H](Cc1c[nH]c2ccccc12)C(=O)N[C@H](C(=O)N[C@@H](C)C(=O)N[C@@H](CCC(N)=O)C(=O)N[C@@H](C)C(=O)N[C@@H](CC(C)C)C(=O)N[C@@H](CCCNC(=N)N)C(=O)N[C@]1(C)CCCCCCC=CCCC[C@@](C)(C(=O)N[C@@H](Cc2ccc(O)cc2)C(=O)N[C@@H](Cc2ccc(O)cc2)C(=O)N[C@@H](C)C(N)=O)NC(=O)[C@H](CC(N)=O)NC(=O)[C@H](Cc2ccccc2)NC(=O)[C@H](CCC(N)=O)NC(=O)[C@H](CC(=O)O)NC(=O)CNC(=O)[C@H](C)NC1=O)[C@@H](C)CC [compound 10] (Ac-IWIAQALR[R8]AGDQFN[S5]YYA-NH2; staple 9-16),4.8,1.9,122,Bcl-xL/Bcl-2 selective

# Continued, in another order:
Ki (Bcl-2) [nM],Ki (Bcl-xL) [nM],Ki (Mcl-1) [nM],Structure (SMILES),"Profile (Mcl-1, Bcl-xL, Bcl-2)"
67,12,5.2,CC[C@H](C)[C@H](NC(C)=O)C(=O)N[C@@H](Cc1c[nH]c2ccccc12)C(=O)N[C@H](C(=O)N[C@@H](C)C(=O)N[C@@H](CCC(N)=O)C(=O)N[C@@H](C)C(=O)N[C@@H](CC(C)C)C(=O)N[C@@H](CCCNC(=N)N)C(=O)N[C@]1(C)CCCCCCC=CCCC[C@@](C)(C(=O)N[C@@H](Cc2ccc(O)cc2)C(=O)N[C@@H](Cc2ccc(O)cc2)C(=O)N[C@@H](C)C(N)=O)NC(=O)[C@H](CC(N)=O)NC(=O)[C@H](Cc2ccccc2)NC(=O)[C@H](CCC(N)=O)NC(=O)[C@H](CC(=O)O)NC(=O)CNC(=O)[C@H]([C@@H](C)CC)NC1=O)[C@@H](C)CC [compound 2] (Ac-IWIAQALR[R8]IGDQFN[S5]YYA-NH2; staple 9-16),Pan-selective
6,1,1,CC[C@H](C)[C@H](NC(C)=O)C(=O)N[C@@H](Cc1c[nH]c2ccccc12)C(=O)N[C@H](C(=O)N[C@@H](C)C(=O)N[C@@H](C)C(=O)N[C@@H](C)C(=O)N[C@@H](CC(C)C)C(=O)N[C@@H](CCCNC(=N)N)C(=O)N[C@]1(C)CCCCCCC=CCCC[C@@](C)(C(=O)N[C@@H](Cc2ccc(O)cc2)C(=O)N[C@@H](Cc2ccc(O)cc2)C(=O)N[C@@H](C)C(N)=O)NC(=O)[C@H](CC(N)=O)NC(=O)[C@H](Cc2ccccc2)NC(=O)[C@H](CCC(=O)O)NC(=O)[C@H](CC(=O)O)NC(=O)CNC(=O)[C@H]([C@@H](C)CC)NC1=O)[C@@H](C)CC [compound 3] (Ac-IWIAAALR[R8]IGDEFN[S5]YYA-NH2; staple 9-16),Pan-selective
140,402,7.5,CC[C@H](C)[C@H](NC(C)=O)C(=O)N[C@@H](Cc1c[nH]c2ccccc12)C(=O)N[C@H](C(=O)N[C@@H](C)C(=O)N[C@@H](CCC(N)=O)C(=O)N[C@@H](C)C(=O)N[C@@H](CC(C)C)C(=O)N[C@@H](CCCNC(=N)N)C(=O)N[C@]1(C)CCCCCCC=CCCC[C@@](C)(C(=O)N[C@@H](Cc2ccc(O)cc2)C(=O)N[C@@H](Cc2ccc(O)cc2)C(=O)N[C@@H](C)C(N)=O)NC(=O)[C@H](CC(N)=O)NC(=O)[C@H](C)NC(=O)[C@H](C)NC(=O)[C@H](CC(=O)O)NC(=O)CNC(=O)[C@H]([C@@H](C)CC)NC1=O)[C@@H](C)CC [compound 7] (Ac-IWIAQALR[R8]IGDAAN[S5]YYA-NH2; staple 9-16),Mcl-1 selective
25.6,7.7,,CC[C@H](C)[C@H](NC(C)=O)C(=O)N[C@@H](Cc1c[nH]c2ccccc12)C(=O)N[C@H](C(=O)N[C@@H](C)C(=O)N[C@@H](CCC(N)=O)C(=O)N[C@@H](C)C(=O)N[C@@H](CC(C)C)C(=O)N[C@@H](CCCNC(=N)N)C(=O)N[C@]1(C)CCCCCCC=CCCC[C@@](C)(C(=O)N[C@@H](Cc2ccc(O)cc2)C(=O)N[C@@H](Cc2ccc(O)cc2)C(=O)N[C@@H](C)C(N)=O)NC(=O)[C@H](CC(N)=O)NC(=O)[C@H](Cc2ccccc2)NC(=O)[C@H](CCC(N)=O)NC(=O)[C@H](CC(=O)O)NC(=O)[C@H](C)NC(=O)[C@H]([C@@H](C)CC)NC1=O)[C@@H](C)CC [compound 9] (Ac-IWIAQALR[R8]IADQFN[S5]YYA-NH2; staple 9-16),Bcl-xL/Bcl-2 selective
